Test results as given in patent US7056945B1, “Selective inhibition of neuronal nitric oxide synthase” (priority 2002, dated 2006).

What was measured:
wild type nNOS = wild type nNOS (Rattus norvegicus, UniProt P29476); assay: Ki for inhibition of wild type nNOS; assay type: biochemical
Text: (§1) We next tested this hypothesis by producing D597N nNOS and N368D eNOS mutant proteins.

D597N nNOS mutant = target: T1, D597N nNOS mutant (Rattus norvegicus, UniProt P29476, D597N); assay: Ki for inhibition of D597N nNOS mutant; assay type: biochemical
T1 construct: made in house
Text: as §1

N368D eNOS mutant = N368D eNOS mutant (Bos taurus, UniProt P29473, N368D); assay: Ki for inhibition of N368D eNOS mutant; assay type: biochemical; settings: Asn368 replaced with Asp in eNOS (N368D eNOS mutant)
Text: as §1

NOS = settings: cited from earlier work
all three NOS isoforms = settings: similar for all three NOS isoforms; cited from earlier work

Molecule `NC(=O)[C@@H]1C[C@@H](N)CN1C(=O)[C@@H](N)CCC/N=C(\N)N[N+](=O)[O-]` [DIP3, L-N^□-nitroarginine-(4R)-amino-L-proline amide] has a Ki (wild type nNOS) of 0.097 µM, a Ki (D597N nNOS mutant) of 21 µM and a Ki (N368D eNOS mutant) of 5.1 µM.
For `N=C(NCCC[C@H](N)C(=O)O)N[N+](=O)[O-]` [L-NNA, L-N^ω-nitroarginine], the potency (NOS; L-NNA bound in the active site of eNOS (FIG. 1C legend)) is given as “low nM” and the “selectivity between NOS isoforms” value (NOS) is given as “poor selectivity”.
For `N=C(N)NCCC[C@H](N)C(=O)O` [L-arginine], the Km (all three NOS isoforms) is listed as “low μM range”.
